Assay results published in PubChem BioAssay (NCI).
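Five concentrations, 48 hours, 96-well plates. Here, GI50 denotes the concentration required for 50% inhibition of growth. TGI marks complete inhibition of growth.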

Tests used:
Experiment in all cases: growth of human tumour cells (NCI), 48 h
HL-60(TB) leukemia = test system: HL-60(TB) leukemia
A549 NSCLC = test system: A549 NSCLC
UO-31 renal = test system: UO-31 renal
ACHN renal = test system: ACHN renal
SR leukemia = test system: SR leukemia
SK-MEL-5 melanoma = test system: SK-MEL-5 melanoma
HCT-15 colon = test system: HCT-15 colon
SK-OV-3 ovarian = test system: SK-OV-3 ovarian
RPMI-8226 leukemia = test system: RPMI-8226 leukemia
NCI-H460 lung = test system: NCI-H460 lung
NCI-H522 lung = test system: NCI-H522 lung

SMILES: C[C@]12CC[C@@H]3c4ccc(OCCN5CCCC5)cc4CC[C@H]3[C@@H]1CCC2=O
- TGI (HL-60(TB) leukemia): > 100 µM
- TGI (A549 NSCLC): > 100 µM
- TGI (UO-31 renal): 61.9 µM
- TGI (ACHN renal): > 100 µM
- TGI (SR leukemia): > 100 µM
- TGI (SK-MEL-5 melanoma): 30 µM
- TGI (HCT-15 colon): 29 µM
- TGI (SK-OV-3 ovarian): > 100 µM
- TGI (RPMI-8226 leukemia): > 100 µM
- TGI (NCI-H460 lung): 53.9 µM

SMILES: CCCCCCCCCCCCCCCC(=O)OC1C(O)C(CO)OC(OC)C1NC(=O)N(CCCl)N=O (stereo not drawn)
- TGI (A549 NSCLC): 23.8 µM
- TGI (UO-31 renal): 28.5 µM
- TGI (ACHN renal): 21.9 µM
- TGI (SR leukemia): 23.7 µM
- TGI (NCI-H522 lung): 23.8 µM
- TGI (SK-MEL-5 melanoma): 30.2 µM
- TGI (HCT-15 colon): 54.8 µM
- TGI (RPMI-8226 leukemia): > 100 µM
- TGI (NCI-H460 lung): 17.6 µM

SMILES: CCCOC1OC(CS(=O)(=O)O)C(O)C(O)C1O (stereo not drawn)
- TGI (HL-60(TB) leukemia): > 100 µM
- TGI (UO-31 renal): > 100 µM
- TGI (SR leukemia): > 100 µM
- TGI (SK-MEL-5 melanoma): > 100 µM
- TGI (HCT-15 colon): > 100 µM
- TGI (SK-OV-3 ovarian): > 100 µM
- TGI (RPMI-8226 leukemia): > 100 µM
- TGI (NCI-H460 lung): > 100 µM

SMILES: O=c1nc2sc3ccc4ccccc4c3n2[nH]c1=O
- TGI (HL-60(TB) leukemia): > 100 µM
- TGI (A549 NSCLC): > 100 µM
- TGI (NCI-H522 lung): > 100 µM
- TGI (SK-MEL-5 melanoma): > 100 µM
- TGI (SK-OV-3 ovarian): > 100 µM
- TGI (NCI-H460 lung): > 100 µM

SMILES: CCCCN=C1OCc2[nH][nH]c(=O)c21
- TGI (HL-60(TB) leukemia): > 100 µM
- TGI (A549 NSCLC): > 100 µM
- TGI (UO-31 renal): > 100 µM
- TGI (ACHN renal): > 100 µM
- TGI (SR leukemia): > 100 µM
- TGI (NCI-H522 lung): > 100 µM
- TGI (SK-MEL-5 melanoma): > 100 µM
- TGI (HCT-15 colon): > 100 µM
- TGI (SK-OV-3 ovarian): > 100 µM
- TGI (RPMI-8226 leukemia): > 100 µM
- TGI (NCI-H460 lung): > 100 µM

SMILES: O=C(O)Cn1c2c(c3c(O)cccc31)C(=O)c1ccccc1-2
- GI50 (HL-60(TB) leukemia): > 100 µM
- TGI (HL-60(TB) leukemia): > 100 µM
- GI50 (A549 NSCLC): > 100 µM
- TGI (A549 NSCLC): > 100 µM
- GI50 (UO-31 renal): > 100 µM
- TGI (UO-31 renal): > 100 µM
- GI50 (ACHN renal): > 100 µM
- TGI (ACHN renal): > 100 µM
- GI50 (NCI-H522 lung): > 100 µM
- TGI (NCI-H522 lung): > 100 µM
- GI50 (SK-MEL-5 melanoma): > 100 µM
- TGI (SK-MEL-5 melanoma): > 100 µM
- GI50 (HCT-15 colon): > 100 µM
- TGI (HCT-15 colon): > 100 µM
- GI50 (SK-OV-3 ovarian): > 100 µM
- TGI (SK-OV-3 ovarian): > 100 µM
- GI50 (NCI-H460 lung): > 100 µM
- TGI (NCI-H460 lung): > 100 µM

SMILES: CCOC(=O)NC(Nc1ccc(Cl)cn1)(C(F)(F)F)C(F)(F)F
- TGI (HL-60(TB) leukemia): > 100 µM
- TGI (UO-31 renal): > 100 µM
- TGI (ACHN renal): > 100 µM
- TGI (SR leukemia): > 100 µM
- TGI (NCI-H522 lung): > 100 µM
- TGI (HCT-15 colon): > 100 µM
- TGI (SK-OV-3 ovarian): > 100 µM
- TGI (RPMI-8226 leukemia): > 100 µM
- TGI (NCI-H460 lung): > 100 µM

SMILES: N#CCCN(CCC#N)c1ccc(/C=C2\N=C(c3cc([N+](=O)[O-])ccc3Cl)N(NC(=O)CC(=O)Nc3ccccc3Cl)C2=O)cc1
- TGI (A549 NSCLC): > 100 µM
- TGI (UO-31 renal): > 100 µM
- TGI (ACHN renal): > 100 µM
- TGI (SR leukemia): > 100 µM
- TGI (NCI-H522 lung): > 100 µM
- TGI (SK-MEL-5 melanoma): > 100 µM
- TGI (HCT-15 colon): > 100 µM
- TGI (SK-OV-3 ovarian): > 100 µM
- TGI (RPMI-8226 leukemia): > 100 µM

SMILES: CC(=O)N/C(=C\c1ccc(/C=C(\NC(C)=O)C2=NC3C(=O)c4ccccc4C(=O)C3N2)cc1)C1=NC2C(=O)c3ccccc3C(=O)C2N1 (stereo not drawn)
- TGI (HL-60(TB) leukemia): > 100 µM
- TGI (UO-31 renal): 74.1 µM
- TGI (ACHN renal): > 100 µM
- TGI (NCI-H522 lung): > 100 µM
- TGI (HCT-15 colon): > 100 µM
- TGI (SK-OV-3 ovarian): > 100 µM
- TGI (RPMI-8226 leukemia): > 100 µM
- TGI (NCI-H460 lung): > 100 µM
